≈ marks a conversion by molar mass, not a printed value.
Key:
[1] = tested on: Candida albicans; test: Inhibition of ergosterol in Candida albicans MTCC 183 after 20 hrs by UV spectrophotometric method; format: functional, organism-based
[2] = tested on: Candida albicans; test: Antifungal activity against Candida albicans MTCC 183 after 24 hrs by well diffusion method; format: functional; conditions: MTCC 183, 24 h
[3] = tested on: Candida albicans; test: Antifungal activity against Candida albicans MTCC 227 after 24 hrs by well diffusion method; format: functional; conditions: MTCC 227, 24 h
[4] = tested on: Candida albicans; test: Antifungal activity against Candida albicans MTCC 854 after 24 hrs by well diffusion method; format: functional; conditions: MTCC 854, 24 h
[5] = tested on: Candida albicans; test: Antifungal activity against Candida albicans MTCC 1637 after 24 hrs by well diffusion method; format: functional; conditions: MTCC 1637, 24 h
[6] = tested on: Candida albicans; test: Antifungal activity against Candida albicans MTCC 3018 after 24 hrs by well diffusion method; format: functional; conditions: MTCC 3018, 24 h
[7] = tested on: Candida albicans; test: Antifungal activity against Candida albicans MTCC 3017 after 24 hrs by well diffusion method; format: functional; conditions: MTCC 3017, 24 h
[8] = tested on: Candida albicans; test: Antifungal activity against Candida albicans MTCC 3958 after 24 hrs by well diffusion method; format: functional; conditions: MTCC 3958, 24 h
[9] = tested on: Candida albicans; test: Antifungal activity against Candida albicans MTCC 4748 after 24 hrs by well diffusion method; format: functional; conditions: MTCC 4748, 24 h
[10] = tested on: Candida albicans; test: Antifungal activity against Candida albicans MTCC 7315 after 24 hrs by well diffusion method; format: functional; conditions: MTCC 7315, 24 h
[11] = tested on: Candida parapsilosis; test: Antifungal activity against Candida parapsilosis MTCC 1744 after 24 hrs by well diffusion method; format: functional; conditions: MTCC 1744, 24 h
[12] = tested on: [Candida] aaseri; test: Antifungal activity against Candida aaseri MTCC 1962 after 24 hrs by well diffusion method; format: functional; conditions: Yamadazyma aaseri, MTCC 1962, 24 h
[13] = tested on: Nakaseomyces glabratus; test: Antifungal activity against Candida glabrata MTCC 3019 after 24 hrs by well diffusion method; format: functional; conditions: MTCC 3019, 24 h
[14] = tested on: Pichia kudriavzevii; test: Antifungal activity against Candida krusei MTCC 3020 after 24 hrs by well diffusion method; format: functional; conditions: MTCC 3020, 24 h
[15] = tested on: Pichia sporocuriosa; test: Antifungal activity against Issatchenkia hanoiensis MTCC 4755 after 24 hrs by well diffusion method; format: functional; conditions: MTCC 4755, 24 h
[16] = tested on: Candida albicans; test: Fungicidal activity against Candida albicans MTCC 183 incubated for 24 hrs followed by transfer of microbial suspension to Sabouraud dextrose agar plates and measured after 24 hrs post transfer; format: functional; conditions: MTCC 183, 24 h
[17] = tested on: Candida albicans; test: Fungicidal activity against Candida albicans MTCC 227 incubated for 24 hrs followed by transfer of microbial suspension to Sabouraud dextrose agar plates and measured after 24 hrs post transfer; format: functional; conditions: MTCC 227, 24 h
[18] = tested on: Candida albicans; test: Fungicidal activity against Candida albicans MTCC 854 incubated for 24 hrs followed by transfer of microbial suspension to Sabouraud dextrose agar plates and measured after 24 hrs post transfer; format: functional; conditions: MTCC 854, 24 h
[19] = tested on: Candida albicans; test: Fungicidal activity against Candida albicans MTCC 1637 incubated for 24 hrs followed by transfer of microbial suspension to Sabouraud dextrose agar plates and measured after 24 hrs post transfer; format: functional; conditions: MTCC 1637, 24 h
[20] = tested on: Candida albicans; test: Fungicidal activity against Candida albicans MTCC 3017 incubated for 24 hrs followed by transfer of microbial suspension to Sabouraud dextrose agar plates and measured after 24 hrs post transfer; format: functional; conditions: MTCC 3017, 24 h
[21] = tested on: Candida albicans; test: Fungicidal activity against Candida albicans MTCC 3018 incubated for 24 hrs followed by transfer of microbial suspension to Sabouraud dextrose agar plates and measured after 24 hrs post transfer; format: functional; conditions: MTCC 3018, 24 h
[22] = tested on: Candida albicans; test: Fungicidal activity against Candida albicans MTCC 3958 incubated for 24 hrs followed by transfer of microbial suspension to Sabouraud dextrose agar plates and measured after 24 hrs post transfer; format: functional; conditions: MTCC 3958, 24 h
[23] = tested on: Candida albicans; test: Fungicidal activity against Candida albicans MTCC 4748 incubated for 24 hrs followed by transfer of microbial suspension to Sabouraud dextrose agar plates and measured after 24 hrs post transfer; format: functional; conditions: MTCC 4748, 24 h
[24] = tested on: Candida albicans; test: Fungicidal activity against Candida albicans MTCC 7315 incubated for 24 hrs followed by transfer of microbial suspension to Sabouraud dextrose agar plates and measured after 24 hrs post transfer; format: functional; conditions: MTCC 7315, 24 h
[25] = tested on: Candida parapsilosis; test: Fungicidal activity against Candida parapsilosis MTCC 1744 incubated for 24 hrs followed by transfer of microbial suspension to Sabouraud dextrose agar plates and measured after 24 hrs post transfer; format: functional; conditions: Lodderomyces parapsilosis, MTCC 1744, 24 h
[26] = tested on: [Candida] aaseri; test: Fungicidal activity against Candida aaseri MTCC 1962 incubated for 24 hrs followed by transfer of microbial suspension to Sabouraud dextrose agar plates and measured after 24 hrs post transfer; format: functional; conditions: Yamadazyma aaseri, MTCC 1962, 24 h
[27] = tested on: Nakaseomyces glabratus; test: Fungicidal activity against Candida glabrata MTCC 3019 incubated for 24 hrs followed by transfer of microbial suspension to Sabouraud dextrose agar plates and measured after 24 hrs post transfer; format: functional; conditions: MTCC 3019, 24 h
[28] = tested on: Pichia kudriavzevii; test: Fungicidal activity against Candida krusei MTCC 3020 incubated for 24 hrs followed by transfer of microbial suspension to Sabouraud dextrose agar plates and measured after 24 hrs post transfer; format: functional; conditions: MTCC 3020, 24 h
[29] = tested on: Pichia sporocuriosa; test: Fungicidal activity against Issatchenkia hanoiensis MTCC 4755 incubated for 24 hrs followed by transfer of microbial suspension to Sabouraud dextrose agar plates and measured after 24 hrs post transfer; format: functional; conditions: MTCC 4755, 24 h

Structure (SMILES): Clc1ccc(COC(Cn2ccnc2)c2ccc(Cl)cc2Cl)c(Cl)c1 (centres undefined) [MICONAZOLE]
- inhibition [1]: Dose-dependent effect
- MIC [2]: 7.8 µg/mL (≈ 18.7 µM)
- MIC [3]: 7.8 µg/mL (≈ 18.7 µM)
- MIC [4]: 7.8 µg/mL (≈ 18.7 µM)
- MIC [5]: 7.8 µg/mL (≈ 18.7 µM)
- MIC [6]: 7.8 µg/mL (≈ 18.7 µM)
- MIC [7]: 7.8 µg/mL (≈ 18.7 µM)
- MIC [8]: 7.8 µg/mL (≈ 18.7 µM)
- MIC [9]: 7.8 µg/mL (≈ 18.7 µM)
- MIC [10]: 7.8 µg/mL (≈ 18.7 µM)
- MIC [11]: 7.8 µg/mL (≈ 18.7 µM)
- MIC [12]: 7.8 µg/mL (≈ 18.7 µM)
- MIC [13]: 7.8 µg/mL (≈ 18.7 µM)
- MIC [14]: 7.8 µg/mL (≈ 18.7 µM)
- MIC [15]: 7.8 µg/mL (≈ 18.7 µM)
- MFC [16]: 7.8 µg/mL (≈ 18.7 µM)
- MFC [17]: 7.8 µg/mL (≈ 18.7 µM)
- MFC [18]: 15.6 µg/mL (≈ 37.5 µM)
- MFC [19]: 7.8 µg/mL (≈ 18.7 µM)
- MFC [20]: 7.8 µg/mL (≈ 18.7 µM)
- MFC [21]: 15.6 µg/mL (≈ 37.5 µM)
- MFC [22]: 7.8 µg/mL (≈ 18.7 µM)
- MFC [23]: 7.8 µg/mL (≈ 18.7 µM)
- MFC [24]: 15.6 µg/mL (≈ 37.5 µM)
- MFC [25]: 7.8 µg/mL (≈ 18.7 µM)
- MFC [26]: 15.6 µg/mL (≈ 37.5 µM)
- MFC [27]: 7.8 µg/mL (≈ 18.7 µM)
- MFC [28]: 15.6 µg/mL (≈ 37.5 µM)
- MFC [29]: 15.6 µg/mL (≈ 37.5 µM)

Source: ChEMBL document CHEMBL4219190, “Studies on synthesis of novel pyrido[2,3-d]pyrimidine derivatives, evaluation of their antimicrobial activity and molecular docking” (Bioorg Med Chem Lett, 2018)
